The record followed here is paper PMC4549042, “Targeting procaspase-3 with WF-208, a novel PAC-1 derivative, causes selective cancer cell apoptosis” (Journal of Cellular and Molecular Medicine, 2015).

SMILES strings stand for the structures. Residues, ends and D or L forms follow the SMILES beside them. *: point of attachment. Cbz = O=C(OCc1ccccc1)*; CH2F = FC* Some results are limits rather than exact numbers.

By IC50 is commonly meant the midpoint of a concentration-inhibition curve. A word on the EC50: it is the concentration giving half of the maximal effect.

In one series the test system is HL-60 cell line. Nature of the series: MTT cell viability assay, HL-60. As to conditions: Homo sapiens, 72 hrs. It counts as cell-based. As for the experimental part: (§1) The cell viability effects of the tested compounds were determined by MTT assay. Cells (1 × 10^4 cells/100 μl/well) were seeded into 96-well culture plates. After overnight incubation, cells were treated with various concentrations of compounds for 72 hrs. Subsequently, 10 μl MTT solution (2.5 mg/ml in PBS) was added to each well, than the cells were incubated for an additional 3–4 hrs at 37°C. After centrifugation (200 × g, 10 min.), the medium with MTT was aspirated, followed by the addition of 100 μl DMSO. The optical density of each well was measured at 570 nm with a Biotek Synergy TM HT Reader.
Background: Tetrazolium assays rely on reduction of a dye to a coloured formazan, in cell work by metabolically active cells.

Series [1] relates to HL-60 and U-937 cell lines. Nature of the series: Western blot of Bcl-2 family and IAP proteins in HL-60 and U-937. The class given is cell-based, human. As to conditions: 5 μM MG132 co-treated with 10 μM WF-208, 24 hrs. As for the experimental part:
Approximately 1 × 10^7 HL-60 cells were gathered after pre-treatment with PAC-1 and WF-208 as previously described. The tumour tissue protein was purified according to the reported methods. Western blotting was performed as previously described. All antibodies were purchased from Cell Signaling Technology. In brief, an equal amount of total protein extracts from cultured cells or tissues were fractionated by 10–15% SDS-PAGE and electrically transferred onto polyvinylidene difluoride (PVDF) membranes. Different primary antibodies and corresponding horseradish peroxidase-conjugated secondary antibodies were used to detect the proteins. The bound secondary antibodies on the PVDF membrane were reacted with ECL™ Western Blotting Reagents detection reagents (Thermo Fisher, Rockford, USA) and exposed to X-ray films. Results were normalized to the internal control β-actin.

In a further series the test system is PC-3 xenograft. Nature of the series: Human prostatic carcinoma PC-3 xenograft mouse model. It counts as in vivo. The following applies: 2.5 mg/kg i.v., 15 days. The protocol: To determine the anti-tumour activity of WF-208 in vivo, viable human prostate cancer PC-3 cells (5 × 10^6/100 μl PBS per mouse) were subcutaneously (s.c.) injected into the right flank of 7- to 8-week old male SCID mice. When the average tumour volume reached 100 mm^3, mice were randomly divided into various treatment and control group (eight mice per group). Tumour size was measured once every 2 days with a calliper (calculated volume = shortest diameter^2 × longest diameter/2). Body weight, diet consumption and tumour size were recorded once every 2 days. After 2 weeks, mice were killed and tumours were excised and stored at −80°C until further analysis.
On the technique in general: In xenograft studies the graft and the host belong to different species.

The subject of series [2] is mouse primary cortical cell. Nature of the series: Cytotoxicity in mouse primary cortical neuron cells. It counts as cell-based. As to conditions: neurotoxicity. The protocol:
as §1

The target of another series is T1, rh-procaspase-3 (Homo sapiens, UniProt P42574).
T1 construct: purchased R&D System (Minneapolis, USA)
T1 sequence (P42574 1-277): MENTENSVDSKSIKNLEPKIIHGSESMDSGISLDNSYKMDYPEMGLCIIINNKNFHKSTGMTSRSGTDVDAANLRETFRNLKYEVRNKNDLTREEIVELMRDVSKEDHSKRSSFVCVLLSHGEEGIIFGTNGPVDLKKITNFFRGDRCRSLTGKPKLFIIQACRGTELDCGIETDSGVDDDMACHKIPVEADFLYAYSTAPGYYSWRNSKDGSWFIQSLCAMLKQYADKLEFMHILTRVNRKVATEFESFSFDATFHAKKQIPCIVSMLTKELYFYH
Nature of the series: Caspase-3 activation assay (procaspase-3 activation in vitro). The class given is biochemical. The following applies: rh-procaspase-3, concentrations 0.08–100 μM. The protocol:
Procaspase-3 protein was purchased from R&D System (Minneapolis, USA). Procaspase-3 protein was added into 384-well plates. Tested compounds (or DMSO as control) were then added to achieve a final concentration of procaspase-3 of 50 ng/ml. Each plate was incubated for 2 hrs at 37°C. Then caspase-3 peptide substrate (acetyl Asp-Glu-Val-Asp-[…] (Ac-DEVD-pNa), 200 μM) were added. The absorbance of each well was measured at 405 nm in kinetic mode for 10 min [13].

The test system of series [3] is HL-60 and U-937 cell lines. Nature of the series: Caspase inhibitors on WF-208-induced early apoptosis (Annexin V/PI). The class given is cell-based, human. As to conditions: 50 μM inhibitor, 10 μM WF-208, 24 hrs. The protocol: Compounds were incubated with HL-60 and U-937 cells for 24 hrs. The cells were harvested and double-stained with FITC-Annexin V Apoptosis Detection Kit (BD Biosciences, San Jase, USA). Cells that positively stained with Annexin V and negatively stained with PI were considered to be early apoptotic.

With `C=CCc1cccc(/C=N/NC(=O)CN2CCN(Cc3nc(-c4ccc(COc5ccc(Cl)cc5)cc4)no3)CC2)c1O` [A1], the IC50 with HL-60 cell line was found to be 0.25 µM.

On to `C=CCc1cccc(/C=N/NC(=O)CN2CCN(Cc3nc(-c4ccc(COc5ccc(F)cc5)cc4)no3)CC2)c1O` [A2], for which the IC50 in the series with HL-60 cell line was 0.39 µM.

As for `C=CCc1cccc(/C=N/NC(=O)CN2CCN(Cc3nc(-c4ccc(COc5cccc(Cl)c5)cc4)no3)CC2)c1O` [A3], the IC50 in the series with HL-60 cell line is 0.4 µM.

Turning to `C=CCc1cccc(/C=N/NC(=O)CN2CCN(Cc3nc(-c4ccc(COc5ccccc5C(F)(F)F)cc4)no3)CC2)c1O` [A4], the IC50 with HL-60 cell line came to 0.35 µM.

`O=C(CN1CCN(Cc2nc(-c3ccc(COc4ccc(Cl)cc4)cc3)no2)CC1)N/N=C/c1ccc(OCc2ccccc2)cc1O` [B1]: the IC50 with HL-60 cell line was 1.26 µM.

As to `O=C(CN1CCN(Cc2nc(-c3ccc(COc4ccc(F)cc4)cc3)no2)CC1)N/N=C/c1ccc(OCc2ccc(Cl)cc2Cl)cc1O` [B2], in the series with HL-60 cell line, the half-inhibitory concentration (IC50) is 1.02 µM.

As for `O=C(CN1CCN(Cc2nc(-c3ccc(COc4ccc(F)cc4)cc3)no2)CC1)N/N=C/c1ccc(OCc2cccc(C(F)(F)F)c2)cc1O` [B3], the IC50 with HL-60 cell line came out at 0.98 µM.

In the case of `CC(C)(C)c1ccc(COc2ccc(/C=N/NC(=O)CN3CCN(Cc4nc(-c5ccc(COc6ccc(Cl)cc6)cc5)no4)CC3)c(O)c2)cc1` [B4], in the series on HL-60 cell line, the IC50 was determined as 0.67 µM.

Consider `O=C(CN1CCN(Cc2nc(-c3ccc(COc4ccc(Cl)cc4)cc3)no2)CC1)N/N=C/c1ccc(OCc2ccc(Cl)cc2Cl)cc1O` [B5], for which the IC50 in the series with HL-60 cell line came out at 1.07 µM.

As for `CC(C)(C)c1ccc(COc2ccc(/C=N/NC(=O)CN3CCN(Cc4nc(-c5ccc(COc6ccc(F)cc6)cc5)no4)CC3)c(O)c2)cc1` [B6], in the series on HL-60 cell line, the IC50 was determined as 0.6 µM.

Consider `O=C(CN1CCN(Cc2nc(-c3ccc(COc4ccc(F)c(F)c4)cc3)no2)CC1)N/N=C/c1ccc(OCc2ccccc2)cc1O` [B7], for which the IC50 in the series with HL-60 cell line was found to be 0.34 µM.

For `O=C(CN1CCN(Cc2nc(-c3ccc(COc4ccc(F)c(F)c4)cc3)no2)CC1)N/N=C/c1ccc(OCc2ccc(Cl)cc2)cc1O` [B8], the IC50 with HL-60 cell line turned out to be 0.3 µM.

In the case of `O=C(CN1CCN(Cc2nc(-c3ccc(COc4ccc(F)c(F)c4)cc3)no2)CC1)N/N=C/c1ccc(OCc2ccc(Cl)cc2Cl)cc1O` [B9], in the series on HL-60 cell line, the IC50 turned out to be 0.41 µM.

Take `CC(C)(C)c1ccc(COc2ccc(/C=N/NC(=O)CN3CCN(Cc4nc(-c5ccc(COc6ccccc6C(F)(F)F)cc5)no4)CC3)c(O)c2)cc1` [B10]: the IC50 with HL-60 cell line worked out at 0.4 µM.

On to `O=C(CN1CCN(Cc2nc(-c3ccc(COc4ccccc4C(F)(F)F)cc3)no2)CC1)N/N=C/c1ccc(OCc2cccc(F)c2)cc1O` [B11], for which, in the series on HL-60 cell line, the IC50 was 1.93 µM.

On to `O=C(CN1CCN(Cc2nc(-c3ccc(COc4ccc(Cl)cc4)cc3)no2)CC1)N/N=C/c1ccc(OCc2cccc(Cl)c2)cc1O` [B12], for which the IC50 in the series with HL-60 cell line is more than 20 µM.

Take `O=C(CN1CCN(Cc2nc(-c3ccc(COc4ccccc4C(F)(F)F)cc3)no2)CC1)N/N=C/c1ccc(OCc2csc(Cc3ccc4c(c3)OCO4)n2)cc1O` [C1]: the IC50 with HL-60 cell line came out at 1.08 µM.

In the case of `CC(C)C[C@@H](C=O)NC(=O)[C@H](CC(C)C)NC(=O)[C@H](CC(C)C)NC(=O)OCc1ccccc1` [MG132, reference compound] (Cbz-Leu-Leu-Leu-aldehyde), in series [1], the “effect on down-regulation of XIAP and survivin induced by WF-208” value is recorded as “blocked the down-regulation”.

As for `C=CCc1cccc(/C=N/NC(=O)CN2CCN(Cc3ccccc3)CC2)c1O` [PAC-1], the figures for the IC50 (with HL-60 cell line; in series [2]) were 2.1 µM and 50100 nM, respectively. Besides, in the series on PC-3 xenograft, the “influence on body weight” value is reported as “minimal influence”. Moreover, in the series on PC-3 xenograft, the “tumour volume compared with control group” value is reported as “no significantly difference”. This molecule also displayed an EC50 at rh-procaspase-3 of 6020 nM.

With `COC(=O)CC[C@H](NC(=O)[C@H](CC(=O)OC)NC(=O)OCc1ccccc1)C(=O)N[C@H](C(=O)N[C@@H](CC(=O)OC)C(=O)CF)C(C)C` [Z-DEVD-FMK], in series [3], the “effect of inhibitor on WF-208-induced early apoptosis” value (shortened to “effect of inhibitor”) is listed as “abolish”.

In the case of `COC(=O)CC[C@H](NC(=O)[C@H](CC(C)C)NC(=O)OCc1ccccc1)C(=O)N[C@@H](Cc1cnc[nH]1)C(=O)N[C@@H](CC(=O)OC)C(=O)CF` [Z-LEHD-FMK] (Cbz-LE(OMe)HD(OMe)-CH2F), the “effect of inhibitor” value in series [3] was “partly inhibit”.

For the molecule `COC(=O)C[C@H](NC(=O)[C@H](C)NC(=O)[C@@H](NC(=O)OCc1ccccc1)C(C)C)C(=O)CF` [Z-VAD-FMK] (Cbz-Val-Ala-Asp(OMe)-CH2F), the “effect of inhibitor” value in series [3] is “abolish”.
